# Laboratory results from PubChem BioAssay (NCI).
#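 Grown in 96-well plates, cells were treated for 48 hours with each compound at five concentrations. Insufficient inhibition: endpoint recorded as highest concentration tested. Definition used: TGI = concentration required for complete inhibition of growth.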
# Assays:
# Experiment in all cases: inhibition of tumour cell growth, NCI panel, 48 h
# SR leukemia = system: SR leukemia
# MDA-N = system: MDA-N
# HL-60(TB) leukemia = system: HL-60(TB) leukemia
# HOP-62 NSCLC = system: HOP-62 NSCLC
# IGROV1 ovarian = system: IGROV1 ovarian
# A498 renal = system: A498 renal
# HOP-92 NSCLC = system: HOP-92 NSCLC
# A549 NSCLC = system: A549 NSCLC
# DU-145 prostate = system: DU-145 prostate
# MDA-MB-435 = system: MDA-MB-435
# BT-549 breast = system: BT-549 breast
# COLO 205 colon = system: COLO 205 colon
# SK-MEL-28 melanoma = system: SK-MEL-28 melanoma
# NCI-H522 lung = system: NCI-H522 lung
# CCRF-CEM leukemia = system: CCRF-CEM leukemia
# TK-10 renal = system: TK-10 renal
# SF-268 CNS = system: SF-268 CNS
# HT29 colon = system: HT29 colon
# SNB-75 CNS = system: SNB-75 CNS
# MOLT-4 leukemia = system: MOLT-4 leukemia
# SN12C renal = system: SN12C renal
# OVCAR-3 ovarian = system: OVCAR-3 ovarian
# HCT-116 colon = system: HCT-116 colon
# UO-31 renal = system: UO-31 renal
# NCI-H460 lung = system: NCI-H460 lung
# OVCAR-5 ovarian = system: OVCAR-5 ovarian
# UACC-257 melanoma = system: UACC-257 melanoma
# K-562 leukemia = system: K-562 leukemia
# M14 melanoma = system: M14 melanoma
# SNB-19 CNS = system: SNB-19 CNS
# SF-295 CNS = system: SF-295 CNS
# UACC-62 melanoma = system: UACC-62 melanoma
# OVCAR-4 ovarian = system: OVCAR-4 ovarian
# SW-620 colon = system: SW-620 colon
# OVCAR-8 ovarian = system: OVCAR-8 ovarian
# EKVX NSCLC = system: EKVX NSCLC
# NCI-H23 lung = system: NCI-H23 lung
# NCI-H226 lung = system: NCI-H226 lung
# LOX IMVI melanoma = system: LOX IMVI melanoma
# 786-0 renal = system: 786-0 renal
# PC-3 prostate = system: PC-3 prostate
# MCF7 breast = system: MCF7 breast
# RXF 393 renal = system: RXF 393 renal
# HCC-2998 colon = system: HCC-2998 colon
# SK-MEL-2 melanoma = system: SK-MEL-2 melanoma
# U251 CNS = system: U251 CNS
# HS 578T breast = system: HS 578T breast
# CAKI-1 renal = system: CAKI-1 renal
# MDA-MB-231 breast = system: MDA-MB-231 breast
# KM12 colon = system: KM12 colon
# ACHN renal = system: ACHN renal
# HCT-15 colon = system: HCT-15 colon
# SF-539 CNS = system: SF-539 CNS
# RPMI-8226 leukemia = system: RPMI-8226 leukemia
# SK-MEL-5 melanoma = system: SK-MEL-5 melanoma
# T-47D breast = system: T-47D breast
# NCI/ADR-RES ovarian = system: NCI/ADR-RES ovarian
# MALME-3M melanoma = system: MALME-3M melanoma
# SK-OV-3 ovarian = system: SK-OV-3 ovarian
compound,measurement,setting,value
COC(=O)c1ccc(CCC2=CC(=O)C=CC2=O)cc1,TGI,SR leukemia,5.82 µM
same,TGI,MDA-N,27.6 µM
same,TGI,HL-60(TB) leukemia,4.79 µM
same,TGI,HOP-62 NSCLC,39.3 µM
same,TGI,IGROV1 ovarian,30.2 µM
same,TGI,A498 renal,32.9 µM
same,TGI,HOP-92 NSCLC,25.1 µM
same,TGI,A549 NSCLC,60.5 µM
same,TGI,DU-145 prostate,33.8 µM
same,TGI,MDA-MB-435,28 µM
same,TGI,BT-549 breast,24.4 µM
same,TGI,COLO 205 colon,26.6 µM
same,TGI,SK-MEL-28 melanoma,26 µM
same,TGI,NCI-H522 lung,3.14 µM
same,TGI,CCRF-CEM leukemia,2 µM
same,TGI,TK-10 renal,33 µM
same,TGI,SF-268 CNS,31.7 µM
same,TGI,HT29 colon,53.4 µM
same,TGI,SNB-75 CNS,32 µM
same,TGI,MOLT-4 leukemia,4.92 µM
same,TGI,SN12C renal,> 55.9 µM
same,TGI,OVCAR-3 ovarian,23.2 µM
same,TGI,HCT-116 colon,25.9 µM
same,TGI,UO-31 renal,19.9 µM
same,TGI,NCI-H460 lung,35.9 µM
same,TGI,OVCAR-5 ovarian,33.8 µM
same,TGI,UACC-257 melanoma,22.5 µM
same,TGI,K-562 leukemia,8.9 µM
same,TGI,M14 melanoma,32.4 µM
same,TGI,SNB-19 CNS,> 56.2 µM
same,TGI,SF-295 CNS,30.6 µM
same,TGI,UACC-62 melanoma,29.3 µM
same,TGI,OVCAR-4 ovarian,38.4 µM
same,TGI,SW-620 colon,26.2 µM
same,TGI,OVCAR-8 ovarian,50.7 µM
same,TGI,EKVX NSCLC,38.7 µM
same,TGI,NCI-H23 lung,39.4 µM
same,TGI,NCI-H226 lung,48.3 µM
same,TGI,LOX IMVI melanoma,24.2 µM
same,TGI,786-0 renal,5.58 µM
same,TGI,PC-3 prostate,27.7 µM
same,TGI,MCF7 breast,30 µM
same,TGI,RXF 393 renal,25.3 µM
same,TGI,HCC-2998 colon,30.8 µM
same,TGI,SK-MEL-2 melanoma,30.4 µM
same,TGI,U251 CNS,24.8 µM
same,TGI,HS 578T breast,75.2 µM
same,TGI,CAKI-1 renal,13.6 µM
same,TGI,MDA-MB-231 breast,> 68.4 µM
same,TGI,KM12 colon,27 µM
same,TGI,ACHN renal,20.4 µM
same,TGI,HCT-15 colon,23 µM
same,TGI,SF-539 CNS,25.6 µM
same,TGI,RPMI-8226 leukemia,5.71 µM
same,TGI,SK-MEL-5 melanoma,30.2 µM
same,TGI,T-47D breast,8.79 µM
same,TGI,NCI/ADR-RES ovarian,61.2 µM
COc1cc(S(=O)(=O)Nc2nc(-c3ccc(N=Cc4ccccc4O)cc3)cs2)ccc1Cl,TGI,SR leukemia,> 100 µM
same,TGI,MDA-N,> 100 µM
same,TGI,HL-60(TB) leukemia,> 100 µM
same,TGI,HOP-62 NSCLC,> 100 µM
same,TGI,MALME-3M melanoma,> 100 µM
same,TGI,IGROV1 ovarian,> 100 µM
same,TGI,A498 renal,> 100 µM
same,TGI,HOP-92 NSCLC,> 100 µM
same,TGI,A549 NSCLC,> 100 µM
same,TGI,DU-145 prostate,> 100 µM
same,TGI,MDA-MB-435,> 100 µM
same,TGI,BT-549 breast,> 100 µM
same,TGI,SK-OV-3 ovarian,> 100 µM
same,TGI,COLO 205 colon,61.8 µM
same,TGI,SK-MEL-28 melanoma,> 100 µM
same,TGI,NCI-H522 lung,> 100 µM
same,TGI,CCRF-CEM leukemia,> 100 µM
same,TGI,TK-10 renal,> 100 µM
same,TGI,SF-268 CNS,> 100 µM
same,TGI,HT29 colon,> 100 µM
same,TGI,SNB-75 CNS,> 100 µM
same,TGI,MOLT-4 leukemia,> 100 µM
same,TGI,SN12C renal,77.3 µM
same,TGI,OVCAR-3 ovarian,> 100 µM
same,TGI,HCT-116 colon,> 100 µM
same,TGI,UO-31 renal,> 100 µM
same,TGI,NCI-H460 lung,> 100 µM
same,TGI,OVCAR-5 ovarian,> 100 µM
same,TGI,UACC-257 melanoma,> 100 µM
same,TGI,K-562 leukemia,> 100 µM
same,TGI,M14 melanoma,> 100 µM
same,TGI,SNB-19 CNS,> 100 µM
same,TGI,SF-295 CNS,> 100 µM
same,TGI,UACC-62 melanoma,75.9 µM
same,TGI,OVCAR-4 ovarian,> 100 µM
same,TGI,SW-620 colon,> 100 µM
same,TGI,OVCAR-8 ovarian,> 100 µM
same,TGI,EKVX NSCLC,86.8 µM
same,TGI,NCI-H23 lung,> 100 µM
same,TGI,NCI-H226 lung,> 100 µM
same,TGI,LOX IMVI melanoma,> 100 µM
same,TGI,786-0 renal,> 100 µM
same,TGI,PC-3 prostate,> 100 µM
same,TGI,MCF7 breast,> 100 µM
same,TGI,RXF 393 renal,> 100 µM
same,TGI,HCC-2998 colon,> 100 µM
same,TGI,SK-MEL-2 melanoma,> 100 µM
same,TGI,U251 CNS,> 100 µM
same,TGI,HS 578T breast,> 100 µM
same,TGI,CAKI-1 renal,> 100 µM
same,TGI,MDA-MB-231 breast,> 100 µM
same,TGI,KM12 colon,> 100 µM
same,TGI,ACHN renal,> 100 µM
same,TGI,HCT-15 colon,> 100 µM
same,TGI,SF-539 CNS,> 100 µM
same,TGI,SK-MEL-5 melanoma,71.5 µM
same,TGI,T-47D breast,> 100 µM
same,TGI,NCI/ADR-RES ovarian,> 100 µM
N/C(CCSCCSCC/C(N)=N\O)=N\O,TGI,SR leukemia,> 100 µM
same,TGI,MDA-N,> 100 µM
same,TGI,HL-60(TB) leukemia,> 100 µM
same,TGI,HOP-62 NSCLC,> 100 µM
same,TGI,MALME-3M melanoma,> 100 µM
same,TGI,IGROV1 ovarian,> 100 µM
same,TGI,HOP-92 NSCLC,> 100 µM
same,TGI,A549 NSCLC,> 100 µM
same,TGI,DU-145 prostate,> 100 µM
same,TGI,MDA-MB-435,> 100 µM
same,TGI,BT-549 breast,> 100 µM
same,TGI,SK-OV-3 ovarian,> 100 µM
same,TGI,COLO 205 colon,> 100 µM
same,TGI,SK-MEL-28 melanoma,> 100 µM
same,TGI,NCI-H522 lung,> 100 µM
same,TGI,CCRF-CEM leukemia,> 100 µM
same,TGI,TK-10 renal,> 100 µM
same,TGI,SF-268 CNS,> 100 µM
same,TGI,HT29 colon,> 100 µM
same,TGI,SNB-75 CNS,> 100 µM
same,TGI,MOLT-4 leukemia,> 100 µM
same,TGI,SN12C renal,> 100 µM
same,TGI,OVCAR-3 ovarian,> 100 µM
same,TGI,HCT-116 colon,> 100 µM
same,TGI,UO-31 renal,> 100 µM
same,TGI,NCI-H460 lung,> 100 µM
same,TGI,OVCAR-5 ovarian,> 100 µM
same,TGI,K-562 leukemia,> 100 µM
same,TGI,M14 melanoma,> 100 µM
same,TGI,SNB-19 CNS,> 100 µM
same,TGI,UACC-62 melanoma,> 100 µM
same,TGI,OVCAR-4 ovarian,> 100 µM
same,TGI,SW-620 colon,> 100 µM
same,TGI,EKVX NSCLC,> 100 µM
same,TGI,NCI-H23 lung,> 100 µM
same,TGI,NCI-H226 lung,> 100 µM
same,TGI,LOX IMVI melanoma,> 100 µM
same,TGI,786-0 renal,> 100 µM
same,TGI,PC-3 prostate,> 100 µM
same,TGI,MCF7 breast,> 100 µM
same,TGI,RXF 393 renal,> 100 µM
same,TGI,HCC-2998 colon,> 100 µM
same,TGI,U251 CNS,> 100 µM
same,TGI,HS 578T breast,> 100 µM
same,TGI,CAKI-1 renal,> 100 µM
same,TGI,MDA-MB-231 breast,> 100 µM
same,TGI,KM12 colon,> 100 µM
same,TGI,ACHN renal,> 100 µM
same,TGI,HCT-15 colon,> 100 µM
same,TGI,SF-539 CNS,> 100 µM
same,TGI,RPMI-8226 leukemia,> 100 µM
same,TGI,SK-MEL-5 melanoma,> 100 µM
same,TGI,T-47D breast,> 100 µM
same,TGI,NCI/ADR-RES ovarian,> 100 µM
